Our source for the IC50 values is ChEMBL document CHEMBL5385876, “Discovery of unglycosylated indolocarbazoles as ROCK2 isoform-selective inhibitors for the treatment of breast cancer metastasis” (Eur J Med Chem, 2023).

For this experiment, the target named is Rho-associated protein kinase 2 (Homo sapiens, UniProt O75116). Briefly: Inhibition of N-terminal His10-StrepII tagged human ROCK2 catalytic domain (1 to 553 residues) expressed in Sf9 insect cells by HTRF assay. Background: TR-FRET usually uses a lanthanide donor and a delayed reading to cut background.
Sequence of Rho-associated protein kinase 2 (O75116 whole entry, the tested form may be a part): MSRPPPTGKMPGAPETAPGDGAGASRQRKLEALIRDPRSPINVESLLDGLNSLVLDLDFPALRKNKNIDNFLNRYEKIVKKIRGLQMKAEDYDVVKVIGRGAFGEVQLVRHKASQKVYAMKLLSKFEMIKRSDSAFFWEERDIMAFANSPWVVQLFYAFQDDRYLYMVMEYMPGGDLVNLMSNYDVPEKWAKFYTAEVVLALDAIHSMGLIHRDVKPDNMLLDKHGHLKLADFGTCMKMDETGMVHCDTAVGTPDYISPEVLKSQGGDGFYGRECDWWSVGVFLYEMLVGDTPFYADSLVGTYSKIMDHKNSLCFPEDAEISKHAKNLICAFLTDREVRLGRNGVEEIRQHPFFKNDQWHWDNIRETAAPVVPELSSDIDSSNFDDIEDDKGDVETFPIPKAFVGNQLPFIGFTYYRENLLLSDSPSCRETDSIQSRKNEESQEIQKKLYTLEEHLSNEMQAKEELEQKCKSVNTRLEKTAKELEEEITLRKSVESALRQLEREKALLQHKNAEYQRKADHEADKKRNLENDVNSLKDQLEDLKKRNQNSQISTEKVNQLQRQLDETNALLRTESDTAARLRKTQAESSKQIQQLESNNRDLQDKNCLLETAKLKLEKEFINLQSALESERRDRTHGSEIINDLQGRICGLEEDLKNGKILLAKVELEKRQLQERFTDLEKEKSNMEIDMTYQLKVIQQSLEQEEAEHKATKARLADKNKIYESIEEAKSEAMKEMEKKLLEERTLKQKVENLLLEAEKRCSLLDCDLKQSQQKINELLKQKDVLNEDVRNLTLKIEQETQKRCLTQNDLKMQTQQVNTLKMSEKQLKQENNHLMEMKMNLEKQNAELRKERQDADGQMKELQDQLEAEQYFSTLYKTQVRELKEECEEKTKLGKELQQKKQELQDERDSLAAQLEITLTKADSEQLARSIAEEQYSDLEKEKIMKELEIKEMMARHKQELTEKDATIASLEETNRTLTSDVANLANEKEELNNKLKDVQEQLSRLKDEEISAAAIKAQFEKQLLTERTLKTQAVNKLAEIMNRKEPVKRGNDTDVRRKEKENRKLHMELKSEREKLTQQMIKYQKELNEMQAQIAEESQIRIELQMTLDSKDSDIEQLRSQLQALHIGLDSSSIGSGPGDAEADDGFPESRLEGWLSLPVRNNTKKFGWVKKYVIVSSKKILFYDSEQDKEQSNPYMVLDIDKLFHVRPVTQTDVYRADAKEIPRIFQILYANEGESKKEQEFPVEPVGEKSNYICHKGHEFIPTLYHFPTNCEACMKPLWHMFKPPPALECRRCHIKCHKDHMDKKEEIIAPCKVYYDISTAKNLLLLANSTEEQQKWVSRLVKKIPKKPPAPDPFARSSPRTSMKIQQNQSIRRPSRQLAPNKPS
Compound `CO[C@@H]1[C@H](NC(C)=O)C[C@H]2O[C@]1(C)n1c3ccccc3c3c4c(c5c6ccccc6n2c5c31)C(=O)NC4` registered an IC50 of 340 nM.

The compound `CO[C@@H]1[C@@H](O)[C@@H](O)[C@H]2O[C@]1(C)n1c3ccccc3c3c4c(c5c6ccccc6n2c5c31)C(=O)N[C@H]4OC` showed a half-inhibitory concentration (IC50) of more than 500 nM.

Regarding `COC(=O)[C@H]1C[C@H]2O[C@]1(C)n1c3ccccc3c3c4c(c5c6ccccc6n2c5c31)C(=O)NC4`, half-maximal inhibition (IC50) was put at 370 nM.

Compound `CO[C@H]1NC(=O)c2c1c1c3ccccc3n3c1c1c2c2ccccc2n1[C@@H]1O[C@@]3(C)[C@H](OC)[C@@H](O)[C@H]1O` displayed an IC50 of more than 500 nM.

`COc1ccc2[nH]c3c4[nH]c5ccc(O)cc5c4c4c(c3c2c1)C(=O)NC4` showed an IC50 of 460 nM.

On to `CC(C)(C)c1ccc2[nH]c3c4[nH]c5ccccc5c4c4c(c3c2c1)C(=O)NC4=O`, for which the concentration for half-maximal inhibition (IC50) is more than 500 nM.

`Cc1ccc2[nH]c3c4[nH]c5ccccc5c4c4c(c3c2c1)CNC4=O` showed an IC50 of more than 500 nM.

In turn, `CC1NC(=O)c2c1c1c3ccccc3[nH]c1c1[nH]c3ccccc3c21` (stereo unspecified) displayed an IC50 of 8220 nM.

`COc1ccc2c(c1)c1c3c(c4c5ccccc5n(C)c4c1n2C)C(=O)N(C)C3=O` had an IC50 of more than 500 nM.

Consider `COc1cccc2[nH]c3c4[nH]c5ccccc5c4c4c(c3c12)C(=O)NC4=O`, for which the IC50 is more than 500 nM.

Regarding `CN[C@@H]1C[C@H]2O[C@@](C)([C@@H]1OC)n1c3ccccc3c3c4c(c5c6ccccc6n2c5c31)C(=O)NC4=O` (stereo in doubt; 15), the IC50 amounted to 20 nM.

Compound `C[C@@H]1O[C@@H]2C[C@](O)([C@H]1O)n1c3ccccc3c3c4c(c5c6ccccc6n2c5c31)C(=O)NC4` displayed an IC50 of more than 500 nM.

Turning to `O=C1NC(=O)c2c1c1c3ccccc3[nH]c1c1[nH]c3ccc(O)cc3c21`, the 50% inhibitory concentration (IC50) was 670 nM.

Consider `CO[C@@H]1[C@H](O)C[C@H]2O[C@]1(C)n1c3ccccc3c3c4c(c5c6ccccc6n2c5c31)C(=O)NC4`, for which the IC50 was determined as 8000 nM.

The compound `C[C@@H]1O[C@@H](n2c3ccccc3c3c4c(c5c6ccccc6[nH]c5c32)CNC4=O)[C@H](O)[C@H](O)[C@H]1O` had a half-maximal inhibitory concentration (IC50) of 470 nM. Against the preceding compound, the IC50 is about 17-fold lower.

`C[C@]12O[C@H](C[C@]1(O)C(=O)O)n1c3ccccc3c3c4c(c5c6ccccc6n2c5c31)CNC4=O` gave an IC50 of more than 500 nM.

On to `CO[C@@H]1[C@H](O)[C@H](O)[C@H](C)O[C@H]1n1c2ccc(O)cc2c2c3c(c4c5ccccc5[nH]c4c21)CNC3=O`, for which the IC50 was more than 500 nM.

Take `COC(=O)[C@@]1(O)C[C@H]2O[C@]1(C)n1c3ccccc3c3c4c(c5c6ccccc6n2c5c31)C(=O)NC4` [K-252A]: the IC50 is more than 500 nM.

Compound `CO[C@H]1NC(=O)c2c1c1c3ccccc3[nH]c1c1c2c2ccccc2n1[C@@H]1O[C@@H](C)[C@H](O)[C@@H](O)[C@H]1O` showed an IC50 of more than 500 nM.

`CO[C@H]1[C@@H](N2CC[C@@H](O)C2=O)C[C@H]2O[C@@]1(C)n1c3ccccc3c3c4c(c5c6ccccc6n2c5c31)C(=O)NC4` (racemic) yielded a half-inhibitory concentration (IC50) of 260 nM.

Compound `CN[C@@H]1C[C@H]2O[C@@](C)([C@@H]1OC)n1c3ccccc3c3c4c(c5c6ccccc6n2c5c31)C(=O)NC4=O` (stereo in doubt; 14) returned an IC50 of 310 nM.

`COc1ccc2[nH]c3c4[nH]c5ccccc5c4c4c(c3c2c1)CNC4=O` yielded an IC50 of more than 500 nM.

In turn, `CO[C@@H]1[C@H](NC(=O)C(=O)c2c[nH]c3ccccc23)C[C@H]2O[C@]1(C)n1c3ccccc3c3c4c(c5c6ccccc6n2c5c31)C(=O)NC4` registered a 50% inhibitory concentration (IC50) of 4780 nM. In other words, the single-digit micromolar range.

The compound `O=C1NC(=O)c2c1c1c3ccccc3[nH]c1c1[nH]c3c(O)cccc3c21` returned an IC50 of more than 500 nM.

Regarding `O=C1NC(=O)c2c1c1c3ccccc3[nH]c1c1[nH]c3ccccc3c21` [STAUROSPORINE AGLYCON], the IC50 is more than 500 nM.

`COc1ccc2[nH]c3c4[nH]c5ccc(OC)cc5c4c4c(c3c2c1)C(=O)NC4=O` [GW296115X] had an IC50 of more than 500 nM.

Consider `COC1NC(=O)c2c1c1c3ccccc3[nH]c1c1[nH]c3ccc(O)cc3c21` (stereo unspecified), for which the IC50 is 320 nM.

`O=C1NC(=O)c2c1c1c3cc(O)ccc3[nH]c1c1[nH]c3ccc(O)cc3c21` displayed an IC50 of 7 nM.

Compound `C[C@H]1O[C@@H]2C[C@](O)([C@@H]1O)n1c3ccccc3c3c4c(c5c6ccccc6n2c5c31)C(=O)NC4` came in with a half-inhibitory concentration (IC50) of more than 500 nM.

In the case of `Cc1ccc2[nH]c3c4[nH]c5ccccc5c4c4c(c3c2c1)C(=O)NC4=O`, the IC50 is more than 500 nM.

As for `CC(C)(C)c1ccc2[nH]c3c4[nH]c5ccccc5c4c4c(c3c2c1)CNC4=O`, the IC50 is more than 500 nM.

As for `O=C1NCc2c1c1c3cc(O)ccc3[nH]c1c1[nH]c3ccc(O)cc3c21`, the IC50 worked out at 3 nM.

As for `O=C1NCc2c1c1c3ccccc3[nH]c1c1[nH]c3ccccc3c21` [STAUROSPORINONE], the IC50 was more than 500 nM.

`CO[C@@H]1[C@@H](O)[C@@H](O)[C@H]2O[C@]1(C)n1c3ccccc3c3c4c(c5c6ccccc6n2c5c31)C(=O)N[C@@H]4O` gave an IC50 of more than 500 nM.

Consider `C[C@@H]1O[C@@H]2C[C@](O)([C@H]1O)n1c3ccccc3c3c4c(c5c6cc(O)ccc6n2c5c31)C(=O)NC4`, for which the IC50 worked out at 210 nM.

Regarding `COc1ccc2[nH]c3c4[nH]c5ccccc5c4c4c(c3c2c1)C(=O)NC4`, the IC50 was more than 500 nM.

Turning to `C[C@]12O[C@H](C[C@@H](N)[C@H]1O)n1c3ccccc3c3c4c(c5c6ccccc6n2c5c31)C(=O)NC4=O`, the IC50 worked out at 360 nM.

For `CN[C@]1(C(=O)OC)C[C@H]2O[C@]1(C)n1c3ccccc3c3c4c(c5c6ccccc6n2c5c31)C(=O)NC4`, the IC50 is more than 500 nM.

As to `CO[C@H]1C(=O)C[C@H]2O[C@]1(C)n1c3ccccc3c3c4c(c5c6ccccc6n2c5c31)C(=O)NC4`, the IC50 is more than 500 nM.

As to `O=C1NC(O)c2c1c1c3ccccc3[nH]c1c1[nH]c3ccccc3c21` (stereo unspecified), the half-maximal inhibitory concentration (IC50) was more than 500 nM.

For the compound `CO[C@@H]1[C@@H](O)[C@@H](O)[C@H]2O[C@]1(C)n1c3ccccc3c3c4c(c5c6ccccc6n2c5c31)C(=O)NC4`, the IC50 came out at 690 nM.

Consider `CO[C@@H]1[C@H](N(C)C(N)=O)C[C@H]2O[C@]1(C)n1c3ccccc3c3c4c(c5c6ccccc6n2c5c31)C(=O)NC4`, for which inhibition was half-maximal at 360 nM (IC50).

The compound `Cc1ccc2[nH]c3c4[nH]c5ccccc5c4c4c(c3c2c1)C(=O)NC4` came in with an IC50 of 550 nM.

`Cn1c2ccccc2c2c3c(c4c5ccccc5[nH]c4c21)C(=O)NC3` gave an IC50 of 550 nM.

Consider `COC1=C(C)O[C@@H]2C[C@@]1(OC)n1c3ccccc3c3c4c(c5c6ccccc6n2c5c31)C(=O)NC4`, for which the IC50 is more than 500 nM.

Consider `C[C@@H]1O[C@@H](n2c3ccccc3c3c4c(c5c6ccccc6[nH]c5c32)[C@H](O)NC4=O)[C@H](O)[C@H](O)[C@H]1O`, for which the IC50 is more than 500 nM.

Regarding `O=C1NCc2c1c1c3ccccc3[nH]c1c1[nH]c3c(O)cccc3c21`, the IC50 is more than 500 nM.

The compound `C[C@]12O[C@H](C[C@]1(O)C(=O)O)n1c3ccccc3c3c4c(c5c6ccccc6n2c5c31)C(=O)NC4=O` showed an IC50 of 300 nM.

On to `CO[C@@H]1[C@H](N(C)C(C)=O)C[C@H]2O[C@]1(C)n1c3ccccc3c3c4c(c5c6ccccc6n2c5c31)C(=O)NC4`, for which the concentration for half-maximal inhibition (IC50) was found to be 570 nM.

`CNC(=O)C[C@H]1O[C@@](C)(C(=O)OC)n2c3ccccc3c3c4c(c5c6ccccc6n1c5c32)C(=O)NC4` came in with an IC50 of 2720 nM.

The compound `C[C@@H]1O[C@@H](n2c3ccc(O)cc3c3c4c(c5c6ccccc6[nH]c5c32)CNC4=O)[C@H](O)[C@H](O)[C@H]1O` displayed an IC50 of 76 nM.

`COc1ccc2c(c1)[nH]c1c3[nH]c4ccccc4c3c3c(c21)C(=O)NC3=O` returned an IC50 of 620 nM.

Compound `COc1cc(/C=C(/C(N)=O)n2c3ccccc3c3c4c(c5c6ccccc6[nH]c5c32)CNC4=O)ccc1O` registered an IC50 of 2120 nM. This IC50 is about 3.4-fold higher than that of the compound before.

Regarding `CO[C@@H]1[C@H](N(C)C(C)=O)C[C@H]2O[C@]1(C)n1c3ccccc3c3c4c(c5c6ccccc6n2c5c31)C(=O)NC4=O`, half-maximal inhibition (IC50) was put at 2070 nM.

Take `C[C@]12O[C@H](C[C@@H](N)[C@H]1O)n1c3ccccc3c3c4c(c5c6ccccc6n2c5c31)CNC4=O`: 35 nM corresponded to half-maximal inhibition (IC50).

Take `C[C@@H]1O[C@@H](n2c3ccccc3c3c4c(c5c6ccccc6[nH]c5c32)C(=O)NC4=O)C[C@@H](NC=O)[C@H]1O`: the IC50 amounted to 250 nM.

On to `O=C1NC(=O)c2c1c1c3ccccc3[nH]c1c1[nH]c3cc(O)ccc3c21`, for which the IC50 stood at 530 nM. Against the preceding compound, the IC50 is about 2.1-fold higher.

The compound `COC(=O)c1cccc2c1NC1(C[C@H]3O[C@]1(C)n1c4ccccc4c4c5c(c6c7ccccc7n3c6c41)C(=O)NC5)C(=O)O2` (stereo partly specified) displayed an IC50 of more than 500 nM.

`CO[C@@H]1C(=O)C[C@H]2O[C@]1(C)n1c3ccccc3c3c4c(c5c6ccccc6n2c5c31)C(=O)NC4` registered a half-maximal inhibitory concentration (IC50) of more than 500 nM.

As to `CC(C)(C)c1ccc2[nH]c3c4[nH]c5ccccc5c4c4c(c3c2c1)C(=O)NC4`, the IC50 was more than 500 nM.

In turn, `O=C1NCc2c1c1c3cccc(O)c3[nH]c1c1[nH]c3ccccc3c21` displayed an IC50 of 260 nM.

As to `C[C@@H]1O[C@@H](n2c3ccccc3c3c4c(c5c6ccccc6[nH]c5c32)CNC4=O)C[C@@H](N)[C@H]1OC(O)C1CO1` (stereo partly specified), the IC50 came to 140 nM. This IC50 is about 1.9-fold lower than that of the compound before.

Regarding `COC1NC(=O)c2c1c1c3ccccc3[nH]c1c1[nH]c3ccccc3c21` (stereo unspecified), the IC50 was more than 500 nM.

`COc1ccc2[nH]c3c4[nH]c5ccc(OC)cc5c4c4c(c3c2c1)CNC4=O` yielded an IC50 of more than 500 nM.

`C[C@@H]1O[C@@H](n2c3ccccc3c3c4c(c5c6ccccc6[nH]c5c32)C(=O)NC4=O)[C@H](O)[C@H](O)[C@H]1O` registered an IC50 of more than 500 nM.

`C[C@@H]1O[C@@H](n2c3ccccc3c3c4c(c5c6ccccc6[nH]c5c32)CNC4=O)C[C@@H](NC=O)[C@H]1O` had an IC50 of more than 500 nM.

With `CO[C@@H]1/C(=N/O)C[C@H]2O[C@]1(C)n1c3ccccc3c3c4c(c5c6ccccc6n2c5c31)C(=O)NC4`, the IC50 is more than 500 nM.

With `CO[C@@H]1[C@@H](O)[C@@H](O)[C@H]2O[C@]1(C)n1c3ccccc3c3c4c(c5c6ccccc6n2c5c31)C(=O)NC4=O`, the IC50 was more than 500 nM.

For `CO[C@@H]1[C@H](N(C)C=O)C[C@H]2O[C@]1(C)n1c3ccccc3c3c4c(c5c6ccccc6n2c5c31)C(=O)NC4`, inhibition was half-maximal at 140 nM (IC50).

For `CO[C@@H]1[C@H](NC=O)C[C@H]2O[C@]1(C)n1c3ccccc3c3c4c(c5c6ccccc6n2c5c31)C(=O)NC4`, the IC50 is more than 500 nM.

With `COC(=O)[C@]1(O)C[C@H]2O[C@]1(C)n1c3ccccc3c3c4c(c5c6ccccc6n2c5c31)C(=O)NC4`, the concentration for half-maximal inhibition (IC50) is more than 500 nM.

One may read the IC50 as the concentration needed to halve the response being measured.
